Assay results published in patent US11331299B2, “Medicinal use of serrulatane diterpenes” (The University of Sydney, priority 2016, dated 2022).
Read-outs that look alike come from different tables or passages of the source.

Experiments:
[1] = molecular target: T1, Epidermal Growth Factor (EGF) (Homo sapiens, UniProt P00533); assay: Epidermal Growth Factor (EGF) radio ligand binding; conditions: assay year 2015, read-out: % Control Response
T1 construct: Human A431 cells; endogenous in cells; host or cells: A431 cells
Description: The in vitro pharmacological studies were conducted by Eurofins PanLab (Taiwan) using the parameters shown in Table 13 with respect to appropriate literature references.

[2] = molecular target: T2, KAT2A (GCN5L2) (h) bromodomain (Homo sapiens, UniProt Q92830); assay: Epigenetic binding assay, Bromodomain; conditions: for inhibition at 10 µM: read-out: % Inhibition of Control Specific Binding
T2 construct: Bromodomain
T2 sequence (Q92830 728-832 limits assumed): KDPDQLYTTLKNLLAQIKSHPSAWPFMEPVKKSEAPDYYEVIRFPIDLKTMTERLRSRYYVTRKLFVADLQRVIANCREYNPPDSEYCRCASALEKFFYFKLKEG

SETD8 (h) = molecular target: T3, SETD8 (h) (Homo sapiens, UniProt Q9NQR1); assay: Epigenetic enzyme assay, Methyltransferases (MTs); type: biochemical; conditions: 10 μM; read-out: % Inhibition of Control Values
T3 sequence (Q9NQR1 1-393): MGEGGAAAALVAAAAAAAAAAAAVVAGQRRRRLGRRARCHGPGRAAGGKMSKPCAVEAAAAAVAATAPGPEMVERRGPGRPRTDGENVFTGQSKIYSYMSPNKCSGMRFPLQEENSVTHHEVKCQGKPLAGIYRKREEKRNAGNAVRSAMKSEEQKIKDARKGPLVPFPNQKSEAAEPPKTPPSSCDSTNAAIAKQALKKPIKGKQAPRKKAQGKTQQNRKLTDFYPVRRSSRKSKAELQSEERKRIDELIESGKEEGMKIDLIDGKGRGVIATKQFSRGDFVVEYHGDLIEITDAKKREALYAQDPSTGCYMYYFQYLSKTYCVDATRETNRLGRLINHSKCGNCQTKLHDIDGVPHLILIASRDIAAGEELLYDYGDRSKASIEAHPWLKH

JMJD2E (h) = molecular target: T4, JMJD2E (h) (Homo sapiens, UniProt B2RXH2); assay: Epigenetic enzyme assay, Demethylases (KDMs); type: biochemical; conditions: for inhibition at 10 µM: read-out: % Inhibition of Control Values
T4 sequence (B2RXH2 1-506): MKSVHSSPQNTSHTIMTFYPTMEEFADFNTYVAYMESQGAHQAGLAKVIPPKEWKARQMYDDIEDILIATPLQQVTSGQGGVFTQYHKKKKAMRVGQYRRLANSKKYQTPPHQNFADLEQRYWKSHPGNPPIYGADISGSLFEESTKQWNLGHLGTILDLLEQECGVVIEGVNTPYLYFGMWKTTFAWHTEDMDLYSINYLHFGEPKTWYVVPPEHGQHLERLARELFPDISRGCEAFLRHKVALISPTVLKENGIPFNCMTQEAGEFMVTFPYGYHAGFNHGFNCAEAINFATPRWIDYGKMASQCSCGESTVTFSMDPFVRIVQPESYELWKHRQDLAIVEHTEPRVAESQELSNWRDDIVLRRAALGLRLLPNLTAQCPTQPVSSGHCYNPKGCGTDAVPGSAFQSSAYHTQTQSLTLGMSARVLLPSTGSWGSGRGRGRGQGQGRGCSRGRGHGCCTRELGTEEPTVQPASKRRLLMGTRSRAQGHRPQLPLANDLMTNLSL

PCAF (h) bromodomain = molecular target: T5, PCAF (h) bromodomain (Homo sapiens, UniProt Q92831); assay: Epigenetic binding assay, Bromodomain; conditions: 10 μM; read-out: % Inhibition of Control Specific Binding
T5 construct: Bromodomain
T5 sequence (Q92831 723-827 limits assumed): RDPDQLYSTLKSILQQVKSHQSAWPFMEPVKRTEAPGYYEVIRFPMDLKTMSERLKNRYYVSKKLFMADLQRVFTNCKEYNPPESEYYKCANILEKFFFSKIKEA

SW480 = assay: OncoPanel cell proliferation assay (10-day); type: cell-based, human; conditions: for EC50 / GI50 / IC50: Homo sapiens, SW480, Colon; for EC50: read-out: Cell Count EC50; for GI50: read-out: Cell Count GI50; for IC50: read-out: Cell Count IC50
KG-1 leukemia cell line = assay: OncoPanel cell proliferation assay (10-day); type: cell-based; conditions: Homo sapiens; for EC50: read-out: Cell Count EC50; for IC50: read-out: Cell Count IC50
DNMT3b = DNMT3b (Homo sapiens, UniProt Q9UBC3); assay: Epigenetic enzyme assay, DNA methyltransferases (DNMTs); type: biochemical; conditions: for inhibition at 10 µM: read-out: % Inhibition of Control Values
NSD1 (h) = NSD1 (h) (Homo sapiens, UniProt Q96L73); assay: Epigenetic enzyme assay, Methyltransferases (MTs); type: biochemical; conditions: for inhibition at 10 µM: read-out: % Inhibition of Control Values
PRMT8 (h) = PRMT8 (h) (Homo sapiens, UniProt Q9NR22); assay: Epigenetic enzyme assay, Methyltransferases (MTs); type: biochemical; conditions: read-out: % Inhibition of Control Values
PHF20(1) Tudor domain = molecular target: T6, PHF20(1) Tudor domain (Homo sapiens, UniProt Q9BVI0); assay: Epigenetic binding assay, Tudor domain; conditions: read-out: % Inhibition of Control Specific Binding
T6 construct: Crystal structures of the Tudor domains of human PHF20; Eurofins CEREP (France), contract laboratory
T6 sequence (Q9BVI0 4-69 limits assumed): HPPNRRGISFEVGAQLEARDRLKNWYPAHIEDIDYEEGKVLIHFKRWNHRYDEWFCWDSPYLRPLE

J-RT3-T3-5 leukemia = assay: OncoPanel cell proliferation assay (10-day); type: cell-based, human; conditions: for GI50 / EC50 / IC50: Homo sapiens; for EC50: read-out: Cell Count EC50; for IC50: read-out: Cell Count IC50
TAF1(2)(h) bromodomain = molecular target: T7, TAF1(2)(h) bromodomain (Homo sapiens, UniProt P21675); assay: Epigenetic binding assay, Bromodomain; conditions: 10 μM; for inhibition at 10 µM: read-out: % Inhibition of Control Specific Binding
T7 construct: Bromodomain
T7 sequence (P21675 1519-1628 limits assumed): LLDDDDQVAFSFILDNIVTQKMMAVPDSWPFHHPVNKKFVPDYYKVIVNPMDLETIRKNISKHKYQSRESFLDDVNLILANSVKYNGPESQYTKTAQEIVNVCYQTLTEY

BRD4(1) (h) bromodomain = molecular target: T8, BRD4(1) (h) bromodomain (Homo sapiens, UniProt O60885); assay: Epigenetic binding assay, Bromodomain; conditions: read-out: % Inhibition of Control Specific Binding
T8 construct: Bromodomain

H3K27 ac = assay: Cell-based detection methyl modifications; conditions: read-out: % Inhibition of Control Values
[3] = KG-1, Leukemia, read-out: Cell Count GI50
[4] = J-RT3-T3-5, Leukemia, read-out: Cell Count GI50

PRMT8 (h), sequence (Q9NR22 whole entry, the tested form may be a part): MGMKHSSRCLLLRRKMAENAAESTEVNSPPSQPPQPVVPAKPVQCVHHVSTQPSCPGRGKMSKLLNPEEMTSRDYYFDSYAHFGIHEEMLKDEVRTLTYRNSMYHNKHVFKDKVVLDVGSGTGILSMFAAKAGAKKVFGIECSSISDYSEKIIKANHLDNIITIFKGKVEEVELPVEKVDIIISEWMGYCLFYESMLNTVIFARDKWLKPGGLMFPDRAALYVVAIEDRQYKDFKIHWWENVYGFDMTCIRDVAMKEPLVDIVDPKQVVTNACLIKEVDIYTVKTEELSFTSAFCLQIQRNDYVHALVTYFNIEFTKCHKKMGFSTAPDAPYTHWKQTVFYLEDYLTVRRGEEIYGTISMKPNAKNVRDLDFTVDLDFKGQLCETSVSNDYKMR
NSD1 (h), sequence (Q96L73 whole entry): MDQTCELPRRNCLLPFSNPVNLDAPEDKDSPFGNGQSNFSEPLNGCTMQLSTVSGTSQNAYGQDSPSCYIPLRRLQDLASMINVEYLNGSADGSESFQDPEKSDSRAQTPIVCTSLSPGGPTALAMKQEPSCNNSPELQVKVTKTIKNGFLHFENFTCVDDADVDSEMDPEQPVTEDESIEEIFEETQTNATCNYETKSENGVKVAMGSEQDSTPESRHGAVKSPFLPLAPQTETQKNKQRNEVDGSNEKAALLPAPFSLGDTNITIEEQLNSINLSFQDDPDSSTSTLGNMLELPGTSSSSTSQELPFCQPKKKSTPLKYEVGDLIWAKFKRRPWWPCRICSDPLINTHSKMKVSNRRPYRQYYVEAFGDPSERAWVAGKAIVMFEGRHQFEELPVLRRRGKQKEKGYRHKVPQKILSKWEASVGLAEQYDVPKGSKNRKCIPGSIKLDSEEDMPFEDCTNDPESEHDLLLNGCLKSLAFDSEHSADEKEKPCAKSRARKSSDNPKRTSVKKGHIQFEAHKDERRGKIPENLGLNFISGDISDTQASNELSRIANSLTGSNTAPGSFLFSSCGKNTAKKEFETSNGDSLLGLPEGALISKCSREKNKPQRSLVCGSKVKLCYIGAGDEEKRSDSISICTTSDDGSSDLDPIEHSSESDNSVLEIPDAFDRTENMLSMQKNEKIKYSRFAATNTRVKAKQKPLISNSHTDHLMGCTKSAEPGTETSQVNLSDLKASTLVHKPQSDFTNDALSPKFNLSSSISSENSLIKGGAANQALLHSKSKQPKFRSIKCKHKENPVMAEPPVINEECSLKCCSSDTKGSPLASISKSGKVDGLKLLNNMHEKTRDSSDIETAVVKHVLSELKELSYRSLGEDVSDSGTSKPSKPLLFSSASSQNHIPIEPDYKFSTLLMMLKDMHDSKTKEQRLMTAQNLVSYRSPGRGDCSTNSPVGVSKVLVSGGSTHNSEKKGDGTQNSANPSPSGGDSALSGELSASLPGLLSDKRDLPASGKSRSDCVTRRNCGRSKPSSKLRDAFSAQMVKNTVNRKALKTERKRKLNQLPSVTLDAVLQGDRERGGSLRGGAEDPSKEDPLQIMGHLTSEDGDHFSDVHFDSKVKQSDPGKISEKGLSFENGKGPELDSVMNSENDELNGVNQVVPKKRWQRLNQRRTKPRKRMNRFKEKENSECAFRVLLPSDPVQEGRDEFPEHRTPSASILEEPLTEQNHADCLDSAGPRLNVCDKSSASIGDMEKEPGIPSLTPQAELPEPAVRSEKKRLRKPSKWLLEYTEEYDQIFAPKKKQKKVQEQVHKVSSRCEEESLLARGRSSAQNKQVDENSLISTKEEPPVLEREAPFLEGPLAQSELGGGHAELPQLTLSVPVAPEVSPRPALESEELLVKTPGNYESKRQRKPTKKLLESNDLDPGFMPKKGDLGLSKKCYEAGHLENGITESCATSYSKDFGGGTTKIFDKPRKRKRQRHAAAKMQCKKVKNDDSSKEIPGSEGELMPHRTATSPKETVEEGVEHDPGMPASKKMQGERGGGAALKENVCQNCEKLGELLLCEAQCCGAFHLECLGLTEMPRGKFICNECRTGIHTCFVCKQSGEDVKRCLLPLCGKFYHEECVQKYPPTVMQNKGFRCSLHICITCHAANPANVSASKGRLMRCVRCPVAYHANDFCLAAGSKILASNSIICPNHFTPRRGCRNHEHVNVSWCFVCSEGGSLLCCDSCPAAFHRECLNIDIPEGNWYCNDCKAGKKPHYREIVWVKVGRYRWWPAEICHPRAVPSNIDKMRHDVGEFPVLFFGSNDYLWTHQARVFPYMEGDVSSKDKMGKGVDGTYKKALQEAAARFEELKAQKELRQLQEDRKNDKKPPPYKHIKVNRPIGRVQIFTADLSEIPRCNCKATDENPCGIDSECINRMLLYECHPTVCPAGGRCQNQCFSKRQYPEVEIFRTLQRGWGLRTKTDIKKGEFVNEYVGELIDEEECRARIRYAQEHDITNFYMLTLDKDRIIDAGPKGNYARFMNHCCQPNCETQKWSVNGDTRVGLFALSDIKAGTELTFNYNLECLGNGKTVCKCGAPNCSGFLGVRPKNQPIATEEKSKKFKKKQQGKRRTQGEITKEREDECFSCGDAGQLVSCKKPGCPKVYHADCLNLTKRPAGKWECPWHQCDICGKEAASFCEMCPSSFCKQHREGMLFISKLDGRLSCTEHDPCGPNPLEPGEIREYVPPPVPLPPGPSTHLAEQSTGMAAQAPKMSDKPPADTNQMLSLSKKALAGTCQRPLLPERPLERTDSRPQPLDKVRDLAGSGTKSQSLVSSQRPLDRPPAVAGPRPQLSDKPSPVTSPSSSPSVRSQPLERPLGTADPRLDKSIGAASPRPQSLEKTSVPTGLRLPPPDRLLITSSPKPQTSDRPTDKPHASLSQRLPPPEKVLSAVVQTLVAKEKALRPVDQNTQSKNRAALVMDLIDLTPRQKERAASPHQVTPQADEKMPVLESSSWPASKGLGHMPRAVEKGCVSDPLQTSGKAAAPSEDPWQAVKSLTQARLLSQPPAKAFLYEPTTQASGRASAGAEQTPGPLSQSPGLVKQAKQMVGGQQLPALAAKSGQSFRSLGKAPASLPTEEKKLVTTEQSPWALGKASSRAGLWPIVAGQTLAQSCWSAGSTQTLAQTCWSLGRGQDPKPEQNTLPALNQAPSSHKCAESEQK
T1 sequence (P00533 25-1210): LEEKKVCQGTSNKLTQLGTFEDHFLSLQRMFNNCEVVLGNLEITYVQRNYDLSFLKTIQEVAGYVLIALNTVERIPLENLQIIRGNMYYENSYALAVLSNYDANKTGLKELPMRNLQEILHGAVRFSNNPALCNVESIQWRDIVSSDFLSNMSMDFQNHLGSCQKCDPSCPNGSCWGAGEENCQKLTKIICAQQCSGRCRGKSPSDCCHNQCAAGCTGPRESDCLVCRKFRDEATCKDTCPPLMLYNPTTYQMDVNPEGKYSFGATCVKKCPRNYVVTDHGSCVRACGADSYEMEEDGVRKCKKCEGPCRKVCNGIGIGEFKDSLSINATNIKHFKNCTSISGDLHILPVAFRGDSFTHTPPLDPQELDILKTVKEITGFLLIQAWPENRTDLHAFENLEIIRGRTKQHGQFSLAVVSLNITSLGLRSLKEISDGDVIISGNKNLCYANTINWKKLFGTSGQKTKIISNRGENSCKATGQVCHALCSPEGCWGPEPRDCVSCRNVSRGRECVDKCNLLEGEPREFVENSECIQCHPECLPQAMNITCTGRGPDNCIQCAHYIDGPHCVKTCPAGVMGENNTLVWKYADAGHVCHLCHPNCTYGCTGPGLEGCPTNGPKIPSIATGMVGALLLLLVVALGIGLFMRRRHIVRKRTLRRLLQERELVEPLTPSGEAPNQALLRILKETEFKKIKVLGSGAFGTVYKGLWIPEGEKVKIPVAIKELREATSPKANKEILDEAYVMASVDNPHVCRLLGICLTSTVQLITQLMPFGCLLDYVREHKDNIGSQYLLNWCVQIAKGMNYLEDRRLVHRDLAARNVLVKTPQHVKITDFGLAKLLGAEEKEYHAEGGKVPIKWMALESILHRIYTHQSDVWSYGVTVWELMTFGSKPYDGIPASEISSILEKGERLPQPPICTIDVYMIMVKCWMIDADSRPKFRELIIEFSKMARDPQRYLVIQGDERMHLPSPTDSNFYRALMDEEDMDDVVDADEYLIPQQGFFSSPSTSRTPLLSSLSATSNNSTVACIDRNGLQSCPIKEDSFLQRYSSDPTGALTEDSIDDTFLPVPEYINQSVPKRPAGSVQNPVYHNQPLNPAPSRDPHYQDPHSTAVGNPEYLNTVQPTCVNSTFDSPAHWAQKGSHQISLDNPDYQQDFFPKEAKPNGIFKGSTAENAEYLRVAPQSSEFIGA

Compound | remaining activity at 10 µM [1] [%] | inhibition at 10 µM ([2]; 10 μM) [%] | inhibition at 10 µM (SETD8 (h)) [%] | inhibition at 10 µM (JMJD2E (h); 10 μM) [%] | inhibition at 10 µM (PCAF (h) bromodomain) [%] | EC50 (SW480) [µM] | GI50 (SW480) [µM] | IC50 (SW480) [µM] | EC50 (KG-1 leukemia cell line; KG-1, Leukemia) [µM] | GI50 (KG-1 leukemia cell line; [3]) [µM] | IC50 (KG-1 leukemia cell line; KG-1, Leukemia) [µM] | inhibition at 10 µM (DNMT3b) [%] | inhibition at 10 µM (NSD1 (h)) [%] | inhibition at 10 µM (PRMT8 (h)) [%] | inhibition at 10 µM (PHF20(1) Tudor domain) [%] | EC50 (J-RT3-T3-5 leukemia; J-RT3-T3-5, Leukemia) [µM] | GI50 (J-RT3-T3-5 leukemia; [4]) [µM] | IC50 (J-RT3-T3-5 leukemia; J-RT3-T3-5, Leukemia) [µM] | inhibition at 10 µM (TAF1(2)(h) bromodomain) [%] | inhibition at 10 µM (BRD4(1) (h) bromodomain) [%] | other results
CC(C)=CCC[C@H](CO)[C@@H]1CC[C@@H](C)c2c1cc(C)c(O)c2O [Compound 1, 7,8,18-trihydroxyserrulat-14-ene] | -8 | 76 | 4 | 65 | 37 | 1.21 | 1.2 | 1.21 | 0.12 | 0.11 | 0.12 | -3 | 69 | 5 | 7 | 0.01 | 0.01 | 0.01 | 62 | 49 | % Inhibition of Control Specific Binding ([2]; 10 μM): significant inhibitory activity; IC50 ([2]; Table 9, inhibition/concentration-response curve, read-out: IC50): 3.9 µM; % Inhibition of Control Values (JMJD2E (h); 10 μM): significant inhibitory activity; IC50 (JMJD2E (h); Table 11, inhibition/concentration-response curve): 4.7 µM; Relative cell count (%) Mean (SW480; SW480, 3.00E+00 microM): 4.1%; Relative cell count (%) Mean (SW480; SW480, 3.00E+01 microM): 0.4%; Relative cell count (%) Mean (SW480; SW480, 3.01E−01 microM): 93.5%; Relative cell count (%) Mean (SW480; SW480, 3.01E−02 microM): 99.5%; Relative cell count (%) Mean (SW480; SW480, 3.02E−03 microM): 116.5%; Relative cell count (%) Mean (SW480; SW480, 9.49E+00 microM): 0.2%; Relative cell count (%) Mean (SW480; SW480, 9.51E−01 microM): 69.9%; Relative cell count (%) Mean (SW480; SW480, 9.52E−02 microM): 94.1%; Relative cell count (%) Mean (SW480; SW480, 9.53E−03 microM): 103.7%; Relative cell count (%) Mean (SW480; SW480, 9.55E−04 microM): 111.8%; GI50 (KG-1 leukemia cell line; read-out: GI50): 0.11 µM; IC50 (NSD1 (h); Table 11, inhibition/concentration-response curve, read-out: IC50): 4.9 µM; GI50 (J-RT3-T3-5 leukemia; J-RT3-T3-5, read-out: GI50): 0.0101 µM; % Inhibition of Control Specific Binding (TAF1(2)(h) bromodomain): significant inhibitory activity; inhibition at 10 µM (H3K27 ac): -16%
CC(C)=CCC[C@@H]1C(O)Oc2c(C)cc(O)c3c2[C@H]1CC[C@H]3C (stereo partly drawn) [Compound 2, 5,18-epoxyserrulat-14-en-8,18-diol] | -9 | 19 | 25 | 10 | 16 | 10.1 | 9.93 | 10.1 | 11.3 | 11.9 | 12 | -17 | 29 | 24 | 2 | 2.08 | 2.06 | 2.08 | 28 | 11 | inhibition at 10 µM (H3K27 ac): -12%
CC(C)=CCC[C@@H]1COc2c(C)cc(O)c3c2[C@H]1CC[C@H]3C [Compound 3, 5,18-epoxy-8-hydroxyserrulat-14-ene] | 4 | 18 | -10 | 6 | 3 | – | – | – | – | – | – | -4 | -10 | -26 | 2 | – | – | – | 22 | 8 | inhibition at 10 µM (H3K27 ac): -11%
CC(C)=CCC[C@H](C)[C@@H]1CC[C@@H](C)c2c1cc(C)c(O)c2O [Compound 4, 7,8-dihydroxyserrulat-14-ene] | – | – | – | – | – | 12.3 | 12.3 | 12.3 | 13.3 | 13.1 | 13.3 | – | – | – | – | 2.71 | 2.71 | 2.71 | – | – | GI50 (J-RT3-T3-5 leukemia; J-RT3-T3-5, read-out: GI50): 2.71 µM; times less activity than Compound 1 (J-RT3-T3-5 leukemia; ratio of GI50 values): approximately 270 times
Nc1ncnc2c1ncn2[C@@H]1O[C@H](CSCC[C@H](N)C(=O)O)[C@@H](O)[C@H]1O [SAH] | – | – | – | – | – | – | – | – | – | – | – | – | – | – | – | – | – | – | – | – | IC50 (DNMT3b; read-out: Reference IC50): 0.094 µM
